According to patent US7160916B2, “Method of increasing bone density or treating osteoporosis” (Yung Shin Pharmaceutical Ind. Co., Ltd., priority 2003, dated 2007):
Marks after values point to notes of the source that are not given here.

Columns and labels:
[1] = tested on: ovariectomized adult female rats; test: Ovariectomy-induced bone loss: bone size, BMD, BMC, bone volume; assay type: in vivo, rat
From the text: Bone histomorphometry: After formalin fixation of tibia was completed, the tibiae were then decalcified in 0.5 N hydrochloric acid, dehydrated in an ascending series of ethanol solution and acetone, and embedded in paraffin. Serial sections (5 μm) were cut longitudinally and stained with Mayer's hematoxylin-eosin solution (Yang et al. (1993) Calcif Tissue Int 52:57–61). Images of the growth plate and proximal tibia were photographed using a photoMicroGraphic Digitize integrate System (MGDS; Total-Integra Technology Co., Ltd., Taipei, Taiwan). Bone volume measurements were performed on the whole secondary spongiosa, which is located under the primary spongiosa and characterized by a network of larger trabeculae. Bone volumes were calculated using an image analysis software. All measurements were done in a single-blind fashion. Ovariectomy and cut of sciatic nerve: Ovariectomy and cut of sciatic nerve were performed in adult female and male rats (3 month-old), respectively. After surgery, the rats were injected with Indazole 1 (i.p., 1 mg/Kg) or a vehicle daily for 4 weeks. On the day following the last injection, the rats were sacrificed and their tibia and femur were removed. Tibia and femur Preparation: At the end of the program, the rats were sacrificed by decapitation. The tibiae were removed, cleaned of soft tissue, and the length of the tibia was measured with a precision caliper (±0.05 mm) as described by Weinreb et al. (1991) J Bone Miner Res 6:725–731. The tibiae were fixed in 10% formaldehyde for 48 h at 4° C. for bone histomorphometry analysis. Some of the tibia and femur were also removed and kept at −20° C. for bone mineral analysis. Analysis of bone mineral density (BMD) and content (BMC): BMD and BMC of the tibia and femur were measured with a dual-energy X-ray absorptiometer (DEXA, XR-26; Norland, Fort Atkinson, Wis.). The mode adapted to the measurements of small subjects was adopted. A coefficient of variation of 0.7% was calculated from daily measurements of BMD on a lumbar phantom for more than 1 year (Yang et al. (1998) Calcif Tissue Int 63:86–90). The tibia and femur were thawed to room temperature before bone mineral analysis. The whole tibiae and femur were scanned and BMD and BMC were measured by absorptiometer. Prevention of bone loss: Ovariectomy (OVX) was performed in adult female rats (n=28). After ovariectomy, one group of the ovariectomized rats (n=16) were injected with Indazole 1 (i.p., 1 mg/kg/day), and the other group (n=12) were not. 15 un-ovarietctomized adult female rats were used as sham-operated controls and were not injected with Indazole 1. […] A 60% reduction in bone volume was observed 4 weeks after ovariectomy. […] The bone volume reached 76% of sham-operated controls.

α5 and β1 integrins = test: Flow cytometry of surface expression of integrins; assay type: cell-based, rat; details: treatment for 24 hr
Method: (§1) Fibronectin (Fn) plays an important role in the regulation of adhesion, migration, and maturation of osteoblasts. Fn fibrillogenesis is involved in the process of bone mineralization. The effect of Indazole 1 on Fn fibrillogenesis in cultured osteoblasts was examined. The immobilized form of fibrillogenesis from the endogenously released Fn by monolayer Day 3˜5 osteoblasts was studied using immunocytochemistry. Incubation of Day-3 osteoblasts with Indazole 1 (10 μM) for 24 hr increased extracellular Fn assembly. Flow cytometry was used to analyze the effect of Indazole 1 on the surface expression of α5 and β1 integrins. […] On the other hand, the collagen synthesis was increased by Indazole 1 only at a higher concentration of 10 μM.

Osteoblasts = test: Assay of cell proliferation (BrdU incorporation); assay type: cell-based, rat
Method: Primary osteoblast cultures: Primary osteoblast cells were prepared from calvaria of 18-day-old fetal Sprague-Dawley (SD) rats according to the following method: Pregnant rats were put in anesthesia using intraperitoneal injection of trichloroacetaldehyde (200 mg/kg). The calvaria of the fetal rats were then dissected with aseptic technique. Soft tissues were removed under a dissecting microscope. The calvaria were divided into small pieces and then treated with 0.1% collagenase (Sigma Chemical, St. Louis, Mo.) solution for 10 minutes at 37° C. The cells released from the calvariae by two 20-minute sequential collagenase digestions were pooled and filtered through 70 μm nylon filters (Falcon, BD BioSciences, San Jose, Calif.). The cells were then grown on plastic cell culture dishes in 95:5 air-CO2 with Dulbecco's modified Eagle's medium (DMEM) (Gibco, Grand Island, N.Y.) which was supplemented with 20 mM HEPES and 10% heat-inactivated FCS, 2 mM-glutamine, penicillin (100 U/ml) and streptomycin (100 μg/ml) (pH adjusted to 7.6). The cell medium was changed twice a week. Osteoblasts were confirmed by morphology and expression of alkaline phosphatase (ALP). […] BrdU incorporation was assayed according to the protocol of enzyme-linked immunosorbent assay chemiluminescence detection kit (Roche Molecular Biochemicals) using a luminescence counter (TopCount; Packard Instruments, Meriden, Conn.). […]

Day-3 osteoblasts = test: Fibronectin fibrillogenesis by immunocytochemistry; assay type: cell-based, rat; details: 10 μM for 24 hr
Method: as §1

[2] = OVX rats, 1 mg/kg daily for 4 weeks
[3] = OVX rats, i.p. 1 mg/kg daily for 1 month, mean ± S.E.

SMILES: OCc1ccc(-c2nn(Cc3ccccc3)c3ccccc23)o1 [Indazole 1, 1-benzyl-3-(5′-hydroxymethyl-2′-furyl)-indazole]
- bone volume relative to sham-operated controls [1, 2]: 76 % of sham-operated controls
- loss of trabecular bone of tibia secondary spongiosa [1, 2]: reduced loss of trabecular bone
- Femur BMC [1, 3]: 0.281 ± 0.001^b
- Femur BMD [1, 3]: 0.112 ± 0.002^b
- Femur length [1, 3]: 3.55 ± 0.01 cm
- Femur weight [1, 3]: 0.87 ± 0.01 g
- Tibia BMC [1, 3]: 0.173 ± 0.011^b
- Tibia BMD [1, 3]: 0.097 ± 0.002^b
- Tibia length [1, 3]: 4.05 ± 0.03 cm
- Tibia weight [1, 3]: 0.67 ± 0.01 g
- ovariectomy-induced loss of BMD and BMC in both tibia and femur ([1]; daily injection, i.p. 1 mg/kg/day): provided protection
- cell surface expression of α5 and β1 integrins (α5 and β1 integrins): increased
- proliferation of osteoblasts (Osteoblasts; 0.1 μM): 119.3 % of control
- proliferation of osteoblasts (Osteoblasts; 1 μM): 126.1 % of control
- extracellular Fn assembly (Day-3 osteoblasts): increased
